Earlier results on 1 molecule are cited in publication PMC10066365, “Nemacol is a small molecule inhibitor of C. elegans vesicular acetylcholine transporter with anthelmintic potential” (Nature Communications, 2023).

The subject of this data set is HEK293 cells. Particulars: cited from earlier work.

`CCC1CCC(N2CCN(c3ccc([N+](=O)[O-])cc3)CC2)CC1` (centres unmarked) [Nemacol-2]: the “result in previous counter-screens” value is reported as “adverse effects”. In addition, for the setting “ref Burns et al., 2015”, the “activity in preliminary HEK293 cell-based assays” value is recorded as “higher activity”.
